Test results: ChEMBL document CHEMBL1201862, “PubChem BioAssay data set” (2004)
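Method: 48-hour compound exposure of cells in 96-well plates, five concentrations, linear interpolation of endpoints. GI50 marks 50% less growth.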 Activity calls are given as the source filed them. No stated cut-off is given here; in the data, active = GI50 up to about 1.1 µM and inactive = higher.

Assays:
Test in all cases: NCI anticancer screen, dose series, 48 h
[1] = test system: Hs-578T
[2] = test system: HOP-92
[3] = test system: SF-539
[4] = test system: HCT-116
[5] = test system: MDA-MB-435
[6] = test system: OVCAR-3
[7] = test system: SF-295
[8] = test system: SW-620
[9] = test system: K562
[10] = test system: 786-0
[11] = test system: NCI-H522
[12] = test system: DU-145
[13] = test system: T47D
[14] = test system: RPMI-8226
[15] = test system: MCF7
[16] = test system: HCC 2998
[17] = test system: NCI/ADR-RES
[18] = test system: NCI-H226
[19] = test system: KM12
[20] = test system: COLO 205
[21] = test system: A498
[22] = test system: U-251
[23] = test system: NCI-H23
[24] = test system: SNB-75
[25] = test system: SN12C
[26] = test system: OVCAR-4
[27] = test system: OVCAR-5
[28] = test system: MDA-MB-231
[29] = test system: SK-OV-3
[30] = test system: SK-MEL-2
[31] = test system: HOP-62
[32] = test system: SK-MEL-5
[33] = test system: EKVX
[34] = test system: SK-MEL-28
[35] = test system: LOX IMVI
[36] = test system: SF-268
[37] = test system: SR
[38] = test system: HL-60
[39] = test system: SNB-19
[40] = test system: UACC-62
[41] = test system: A549
[42] = test system: UO-31
[43] = test system: TK-10
[44] = test system: ACHN
[45] = test system: MOLT-4
[46] = test system: UACC-257
[47] = test system: HT-29
[48] = test system: Malme-3M
[49] = test system: RXF 393
[50] = test system: PC-3
[51] = test system: M14
[52] = test system: MDA-N
[53] = test system: CAKI-1
[54] = test system: OVCAR-8
[55] = test system: IGROV-1
[56] = test system: NCI-H460
[57] = test system: CCRF-CEM
[58] = test system: HCT-15

Structure (SMILES): CCc1nc(N)nc(N)c1-c1ccc(Cl)c(N=[N+]=[N-])c1
- GI50 [1]: 16.7 µM (inactive)
- GI50 [2]: 20.5 µM (inactive)
- GI50 [3]: 4.05 µM (inactive)
- GI50 [4]: 0.6 µM (active)
- GI50 [5]: 2.84 µM (inactive)
- GI50 [6]: 15.6 µM (inactive)
- GI50 [7]: 2.09 µM (inactive)
- GI50 [8]: 1.6 µM (inactive)
- GI50 [9]: 0.37 µM (active)
- GI50 [10]: 3.44 µM (inactive)
- GI50 [11]: 9.51 µM (inactive)
- GI50 [12]: 11.2 µM (inactive)
- GI50 [13]: 28.5 µM (inactive)
- GI50 [14]: 8.87 µM (inactive)
- GI50 [15]: 5.48 µM (inactive)
- GI50 [16]: 9.62 µM (inactive)
- GI50 [17]: 5.5 µM (inactive)
- GI50 [18]: 22.7 µM (inactive)
- GI50 [19]: 7.36 µM (inactive)
- GI50 [20]: 7.74 µM (inactive)
- GI50 [21]: 8.39 µM (inactive)
- GI50 [22]: 4.69 µM (inactive)
- GI50 [23]: 4.03 µM (inactive)
- GI50 [24]: 22.1 µM (inactive)
- GI50 [25]: 12.6 µM (inactive)
- GI50 [26]: 19.2 µM (inactive)
- GI50 [27]: 12.1 µM (inactive)
- GI50 [28]: 15.6 µM (inactive)
- GI50 [29]: 31 µM (inactive)
- GI50 [30]: 14.6 µM (inactive)
- GI50 [31]: 16.7 µM (inactive)
- GI50 [32]: 2.61 µM (inactive)
- GI50 [33]: 2.75 µM (inactive)
- GI50 [34]: 13.5 µM (inactive)
- GI50 [35]: 2.21 µM (inactive)
- GI50 [36]: 9.35 µM (inactive)

Structure (SMILES): CN(Cc1cc(Cl)c(Cl)cc1NC(=O)CN)[C@H]1CCCC[C@@H]1N1CCCC1
- GI50 [37]: 21.5 µM (inactive)
- GI50 [1]: 24.9 µM (inactive)
- GI50 [2]: > 100 µM (inactive)
- GI50 [4]: 20.8 µM (inactive)
- GI50 [5]: 15.6 µM (inactive)
- GI50 [6]: 74 µM (inactive)
- GI50 [7]: 18.6 µM (inactive)
- GI50 [8]: 37.5 µM (inactive)
- GI50 [9]: 17.8 µM (inactive)
- GI50 [10]: 17.1 µM (inactive)
- GI50 [38]: 40.4 µM (inactive)
- GI50 [39]: 45.2 µM (inactive)
- GI50 [11]: 18.4 µM (inactive)
- GI50 [40]: 17.1 µM (inactive)
- GI50 [41]: 38.3 µM (inactive)
- GI50 [42]: 20.7 µM (inactive)
- GI50 [43]: 28.1 µM (inactive)
- GI50 [44]: > 100 µM (inactive)
- GI50 [13]: 38.6 µM (inactive)
- GI50 [45]: 28.8 µM (inactive)
- GI50 [15]: 32.4 µM (inactive)
- GI50 [16]: 17.2 µM (inactive)
- GI50 [17]: > 100 µM (inactive)
- GI50 [18]: 66.4 µM (inactive)
- GI50 [46]: 16.9 µM (inactive)
- GI50 [47]: 19 µM (inactive)
- GI50 [19]: 44.4 µM (inactive)
- GI50 [48]: 18.3 µM (inactive)
- GI50 [20]: 15.2 µM (inactive)
- GI50 [49]: > 100 µM (inactive)
- GI50 [21]: 18.4 µM (inactive)
- GI50 [50]: 50.7 µM (inactive)
- GI50 [22]: 5.2 µM (inactive)
- GI50 [23]: > 100 µM (inactive)
- GI50 [24]: > 100 µM (inactive)
- GI50 [51]: 17.1 µM (inactive)
- GI50 [52]: 17 µM (inactive)
- GI50 [25]: 69.3 µM (inactive)
- GI50 [53]: 92.7 µM (inactive)
- GI50 [54]: 54.5 µM (inactive)
- GI50 [26]: > 100 µM (inactive)
- GI50 [55]: 66.2 µM (inactive)
- GI50 [27]: 46.3 µM (inactive)
- GI50 [28]: 38.5 µM (inactive)
- GI50 [56]: 21.8 µM (inactive)
- GI50 [29]: > 100 µM (inactive)
- GI50 [30]: 16.2 µM (inactive)
- GI50 [31]: 92.7 µM (inactive)
- GI50 [32]: 17.7 µM (inactive)
- GI50 [33]: 34.9 µM (inactive)
- GI50 [34]: 19.8 µM (inactive)
- GI50 [35]: 15.4 µM (inactive)
- GI50 [36]: 68.2 µM (inactive)
- GI50 [57]: 30.3 µM (inactive)

Structure (SMILES): CCOC(=O)c1csc(NC(=O)CCN(CC)CC)n1
- GI50 [37]: 21.9 µM (inactive)
- GI50 [2]: 24.5 µM (inactive)
- GI50 [3]: 26.9 µM (inactive)
- GI50 [5]: 38.3 µM (inactive)
- GI50 [6]: 26.8 µM (inactive)
- GI50 [7]: > 100 µM (inactive)
- GI50 [8]: 27.2 µM (inactive)
- GI50 [9]: 71 µM (inactive)
- GI50 [38]: 39.1 µM (inactive)
- GI50 [39]: > 100 µM (inactive)
- GI50 [40]: 45 µM (inactive)
- GI50 [12]: 40.2 µM (inactive)
- GI50 [41]: 55 µM (inactive)
- GI50 [58]: 27.6 µM
- GI50 [42]: 35.7 µM (inactive)
- GI50 [43]: 23.8 µM (inactive)
- GI50 [44]: 42.9 µM (inactive)
- GI50 [13]: 54.7 µM (inactive)
- GI50 [45]: 32.7 µM (inactive)
- GI50 [14]: 0.0817 µM (active)
- GI50 [15]: 26 µM (inactive)
- GI50 [16]: 49.8 µM (inactive)
- GI50 [17]: 40.2 µM (inactive)
- GI50 [18]: 30.3 µM (inactive)
- GI50 [46]: 28.1 µM (inactive)
- GI50 [47]: 23.8 µM (inactive)
- GI50 [19]: 23.5 µM (inactive)
- GI50 [20]: 33.8 µM (inactive)
- GI50 [49]: 49.4 µM (inactive)
- GI50 [21]: 91.2 µM (inactive)
- GI50 [50]: 41 µM (inactive)
- GI50 [22]: 81.3 µM (inactive)
- GI50 [23]: 64.7 µM (inactive)
- GI50 [24]: 28.1 µM (inactive)
- GI50 [51]: 25 µM (inactive)
- GI50 [52]: 45.5 µM (inactive)
- GI50 [53]: 20.5 µM (inactive)
- GI50 [54]: 30.7 µM (inactive)
- GI50 [26]: 57.4 µM (inactive)
- GI50 [55]: 39.7 µM (inactive)
- GI50 [27]: > 100 µM (inactive)
- GI50 [28]: 50.5 µM (inactive)
- GI50 [56]: > 100 µM (inactive)
- GI50 [29]: > 100 µM (inactive)
- GI50 [30]: 55.7 µM (inactive)
- GI50 [31]: > 100 µM (inactive)
- GI50 [32]: 45.8 µM (inactive)
- GI50 [33]: 63.2 µM (inactive)
- GI50 [34]: 27.5 µM (inactive)
- GI50 [35]: 33.2 µM (inactive)
- GI50 [57]: 27.5 µM (inactive)
